Assay results: US20120136057A1, “HYDROXY FATTY ACID COMPOUNDS AND USES THEREOF FOR DISEASE TREATMENT AND DIAGNOSIS” (PHENOMENOME DISCOVERIES INC., priority 2009, published 2012)

Assays:
Format in all cases: cell-based, mouse
IL-1β = IL-1β protein by ELISA in LPS-stimulated RAW macrophage cells; details: RAW293 cells, 0.5 mM before LPS stimulation
Description: ELISA for mouse IL-1 beta: Raw cells were treated as described in real time PCR. 50 ul of conditioned medium or 100 ug of cell lysate was used to determine the amount of IL-1 beta as per manufactory's instruction (Cat. No. MLB00B, Quantikine)
(§1) The RAW293 mouse macrophage cell model system is commonly used to assess anti-inflammatory activity of compounds. The cells are treated with lipopolysaccharide which induces a massive inflammatory response, of which compounds can be tested for their ability to protect against. RAW293 cells were pretreated with hPULCFA-enriched extract followed by treatment with LPS for 24 hours after which mRNA transcript and protein levels of pro-inflammatory markers including the cytokines tumor necrosis factor alpha (TNFα) and interleukin-1 beta (IL-1β), iNOS as described above, cyclooxygenase 2 (COX2, the enzyme responsible for the production of pro-inflammatory eicosanoids from arachidonic acid) were assessed.

TNFα = TNFα protein by ELISA in LPS-stimulated RAW macrophage cells; details: RAW293 cells, 0.5 mM before LPS stimulation
Description: ELISA for mouse TNF alpha: Raw cells were treated as described in real time PCR. Conditioned medium was collected. Cells was briefly washed with ice cold PBS and lysed with lysis buffer (Jerry's recipe); Protein in the cell lysate was quantified using the Bio-Rad Protein Assay (Bio-Rad, Hercules, Calif.). 50 ul of conditioned medium or 100 ug of cell lysate per well was used to determine the amount of TNF alpha as per manufactory's instruction (Cat. No. KMC3011, Invitrogen).
as §1

TNFα mRNA transcript = experiment: TNFα mRNA by quantitative real-time PCR in LPS-stimulated RAW macrophage cells; details: RAW264.7 cells, 500 uM (0.5 mM) before LPS stimulation
Description: Quantitative Real time PCR: RAW264.7 cells were seeded at 1×10^6/well in […] plate the day before the treatment. The following day, the cells were treated with different concentration of hPUCLFA(D046) or 1% FA/DMSO (DMSO) as vehicle control for 4 hours; each treatment was in duplicate; then stimulated with LPS at 1 μg/ml (cat. No. L4391, Sigma) for 20 hours. Total RNA was isolated from cell pellets using Trizol (Cat. No. 15596-018, Invitrogen) as per manufacturer's instruction. The RNA pellets were resuspended in 50 μL of DEPC treated water and stored at −80° C. RNA concentration and purity was determined by spectrophotometry at 260 and 280 nm. […]
The RAW293 mouse macrophage cell model system is commonly used to assess anti-inflammatory activity of compounds. […] RAW293 cells were pretreated with hPULCFA-enriched extract followed by treatment with LPS for 24 hours after which mRNA transcript and protein levels of pro-inflammatory markers including the cytokines tumor necrosis factor alpha (TNFα) and interleukin-1 beta (IL-1β), iNOS as described above, cyclooxygenase 2 (COX2, the enzyme responsible for the production of pro-inflammatory eicosanoids from arachidonic acid) were assessed.

With `CCCC(O)C/C=C\C(O)/C=C\C/C=C\C/C=C\C/C=C\CCCCCCCCC(=O)O` (stereo not drawn) [Compound D046-124] the “levels of IL-1β in conditioned media” value (IL-1β) was “completely blocked”, the “TNFα protein level in conditioned media” value (TNFα) was “prevented the induction” and the “induction of TNFα transcripts” value (TNFα mRNA transcript) was “prevented the induction”.
